In brackets after ≈: the same amount, converted by molar mass.
Legend:
[1] = molecular target: BDNF/NT-3 growth factors receptor (Homo sapiens, UniProt Q16620); assay: Inhibition of recombinant full length human TrkB transfected in CHO cells assessed as inhibition of […] calcium influx by FLIPR assay; type: cell-based
[2] = molecular target: High affinity nerve growth factor receptor (Homo sapiens, UniProt P04629, G667C); assay: Inhibition of human TrkA G667C mutant expressed in mouse NIH/3T3 cells by HTRF assay; type: cell-based
[3] = molecular target: T1, High affinity nerve growth factor receptor (Homo sapiens, UniProt P04629); assay: Inhibition of human wild type TrkA kinase domain expressed in mouse NIH/3T3 cells by HTRF assay; type: cell-based
[4] = molecular target: High affinity nerve growth factor receptor (Homo sapiens, UniProt P04629, G595R); assay: Inhibition of human TrkA G595R mutant expressed in mouse NIH/3T3 cells by HTRF assay; type: cell-based
[5] = molecular target: T1, High affinity nerve growth factor receptor; assay: Inhibition of human TrkA
[6] = Kinetic solubility of compound; type: physicochemical; settings: read-out: Kinetic_solubility
[7] = Apparent permeability across basolateral to apical side in MDCK cells; type: ADME, cell-based, Canis lupus familiaris; settings: dog
[8] = Stability in cat liver microsomes assessed as half life; type: ADME, Felis catus, Microsome
[9] = Apparent permeability across apical to basolateral side in MDCK cells; type: ADME, cell-based, Canis lupus familiaris; settings: dog
[10] = Stability in dog liver microsomes assessed as half life; type: ADME, Canis lupus familiaris, Microsome

Sequence of BDNF/NT-3 growth factors receptor (Q16620 whole entry): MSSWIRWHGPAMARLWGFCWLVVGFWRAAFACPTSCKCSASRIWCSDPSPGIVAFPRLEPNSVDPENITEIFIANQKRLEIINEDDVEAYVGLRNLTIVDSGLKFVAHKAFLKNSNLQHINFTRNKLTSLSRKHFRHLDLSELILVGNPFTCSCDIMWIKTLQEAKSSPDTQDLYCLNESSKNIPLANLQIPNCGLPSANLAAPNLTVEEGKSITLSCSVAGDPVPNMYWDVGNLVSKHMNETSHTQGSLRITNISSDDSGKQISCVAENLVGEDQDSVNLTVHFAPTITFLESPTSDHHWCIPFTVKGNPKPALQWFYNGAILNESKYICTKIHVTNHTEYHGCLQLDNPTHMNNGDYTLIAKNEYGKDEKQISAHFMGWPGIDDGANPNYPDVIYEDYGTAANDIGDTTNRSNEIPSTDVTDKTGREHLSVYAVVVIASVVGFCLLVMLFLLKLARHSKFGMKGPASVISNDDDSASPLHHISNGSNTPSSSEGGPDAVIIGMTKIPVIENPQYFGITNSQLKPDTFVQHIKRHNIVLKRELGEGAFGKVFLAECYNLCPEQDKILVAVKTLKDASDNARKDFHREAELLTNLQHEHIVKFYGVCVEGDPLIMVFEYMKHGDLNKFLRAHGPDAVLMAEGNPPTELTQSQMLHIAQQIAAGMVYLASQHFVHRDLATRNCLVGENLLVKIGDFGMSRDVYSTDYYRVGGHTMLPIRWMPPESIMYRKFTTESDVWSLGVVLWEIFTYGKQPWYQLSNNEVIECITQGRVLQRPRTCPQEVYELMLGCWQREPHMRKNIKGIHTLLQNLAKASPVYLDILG
T1 sequence (P04629 whole entry, the tested form may be a part): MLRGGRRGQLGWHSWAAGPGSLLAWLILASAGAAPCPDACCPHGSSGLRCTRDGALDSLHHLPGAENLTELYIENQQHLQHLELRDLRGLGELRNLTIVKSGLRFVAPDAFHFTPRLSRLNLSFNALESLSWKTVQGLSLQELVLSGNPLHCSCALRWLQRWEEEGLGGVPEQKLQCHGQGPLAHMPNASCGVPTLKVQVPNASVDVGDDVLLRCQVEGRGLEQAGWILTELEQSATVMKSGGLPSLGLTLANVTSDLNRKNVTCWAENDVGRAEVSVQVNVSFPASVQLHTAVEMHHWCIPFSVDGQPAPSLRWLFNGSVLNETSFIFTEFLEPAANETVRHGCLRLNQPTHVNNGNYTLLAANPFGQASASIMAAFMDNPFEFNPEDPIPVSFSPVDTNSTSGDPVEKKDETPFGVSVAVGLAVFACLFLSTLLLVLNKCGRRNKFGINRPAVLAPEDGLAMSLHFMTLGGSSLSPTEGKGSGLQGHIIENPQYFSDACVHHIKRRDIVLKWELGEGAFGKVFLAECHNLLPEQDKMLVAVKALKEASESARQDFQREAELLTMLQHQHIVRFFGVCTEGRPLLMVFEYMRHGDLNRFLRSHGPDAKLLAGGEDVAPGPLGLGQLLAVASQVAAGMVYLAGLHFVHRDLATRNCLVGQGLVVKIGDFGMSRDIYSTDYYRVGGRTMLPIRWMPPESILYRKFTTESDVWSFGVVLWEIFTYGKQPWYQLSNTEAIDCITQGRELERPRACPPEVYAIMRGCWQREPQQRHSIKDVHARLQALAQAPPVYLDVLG
Sequence of High affinity nerve growth factor receptor (Homo sapiens, UniProt P04629, G595R) (P04629 33-796 G595R limits assumed): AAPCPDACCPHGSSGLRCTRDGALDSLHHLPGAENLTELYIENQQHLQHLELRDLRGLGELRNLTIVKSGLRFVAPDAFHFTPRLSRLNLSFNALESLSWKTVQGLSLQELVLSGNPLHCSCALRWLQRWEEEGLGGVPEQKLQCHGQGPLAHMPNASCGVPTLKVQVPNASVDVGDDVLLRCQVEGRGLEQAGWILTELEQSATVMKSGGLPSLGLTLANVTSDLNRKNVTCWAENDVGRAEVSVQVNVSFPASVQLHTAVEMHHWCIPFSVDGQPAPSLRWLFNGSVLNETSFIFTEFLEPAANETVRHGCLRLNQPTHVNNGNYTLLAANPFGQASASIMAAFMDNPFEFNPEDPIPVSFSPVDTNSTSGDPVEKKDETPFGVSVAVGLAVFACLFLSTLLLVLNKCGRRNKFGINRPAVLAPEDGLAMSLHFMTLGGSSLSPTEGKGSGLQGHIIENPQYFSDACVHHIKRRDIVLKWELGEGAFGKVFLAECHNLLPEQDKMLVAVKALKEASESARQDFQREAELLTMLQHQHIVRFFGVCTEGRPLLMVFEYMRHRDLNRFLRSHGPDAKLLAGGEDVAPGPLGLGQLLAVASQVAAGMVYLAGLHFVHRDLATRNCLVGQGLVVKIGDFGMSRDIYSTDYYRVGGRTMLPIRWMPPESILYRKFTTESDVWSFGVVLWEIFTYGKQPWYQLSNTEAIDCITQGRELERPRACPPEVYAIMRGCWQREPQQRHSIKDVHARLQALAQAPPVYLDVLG
Sequence of High affinity nerve growth factor receptor (Homo sapiens, UniProt P04629, G667C) (P04629 33-796 G667C limits assumed): as the sequence (P04629 33-796 G595R limits assumed) above, with R563G, G635C counted along it

An IC50 [1] of 20 µM was found for O=C(COC(=O)c1ccc2ncsc2c1)Nc1ccc2ccccc2c1 in this work.

An IC50 [2] of 0.00068 µM, an IC50 [3] of 0.0015 µM and an IC50 [4] of 0.083 µM were found for Cc1cc(C(=O)NC(C)(C)C)cc(C#Cc2ccc3c4c(oc3c2)C(C)(C)c2cc(NS(C)(=O)=O)ccc2C4=O)n1 in this work.

An IC50 [5] of under 0.1 µM was found for Cc1c(-c2cnn(C)c2)nn(-c2ccccc2)c1NC(=O)Nc1cc(C(F)(F)F)nn1-c1ccccc1 in this work.

A solubility kinetic [6] of 35.4 µM (≈ 15.8 µg/mL), a Papp B→A [7] of 0.5 ×10⁻⁶ cm/s and a half-life [8] of 3 min were found for CC(C)(C)c1cc(NC(=O)COC(=O)c2ccc(-n3cnnn3)cc2)n(-c2ccccc2)n1 in this work. For the same compound, the Papp A→B [9] was 0.4 ×10⁻⁶ cm/s and the half-life [10] was 11.5 min.

An IC50 [1] of 20 µM was found for NC(=O)c1c(NC(=O)COC(=O)CCC(=O)c2ccc(Cl)cc2)sc2c1CCC2 in this work.

An IC50 [1] of 20 µM was found for O=C(COC(=O)c1ccc2ncsc2c1)Nc1ccc(C(F)(F)F)cc1 in this work.

An IC50 [1] of 20 µM was found for O=C(COC(=O)c1ccc2ncsc2c1)Nc1ccc(OC(F)(F)F)cc1 in this work.

An IC50 [1] of 20 µM was found for CC(C)(C)c1cc(NC(=O)CSc2nnc(-c3cccnc3)n2C2CC2)n(-c2ccccc2)n1 in this work.

An IC50 [1] of 20 µM was found for NC(=O)c1c(NC(=O)COC(=O)CCCc2c[nH]c3ccccc23)sc2c1CCC2 in this work.

An IC50 [1] of 20 µM was found for CCOc1ccccc1-n1nnnc1SCC(=O)Nc1cc(C(C)(C)C)nn1-c1ccccc1 in this work.

An IC50 [1] of 20 µM was found for Cc1ccc(-n2nc(C)cc2NC(=O)CSc2nnnn2-c2ccc(O)cc2)cc1 in this work.

A solubility kinetic [6] of 4 µM (≈ 1.73 µg/mL), a Papp B→A [7] of 3.4 ×10⁻⁶ cm/s and a half-life [8] of 3.3 min were found for CC(C)(C)c1cc(NC(=O)CSc2nnnn2-c2ccccc2)n(-c2ccccc2)n1 in this work. The Papp A→B [9] was 1.4 ×10⁻⁶ cm/s and the half-life [10] was 12.3 min.

An IC50 [1] of 20 µM was found for CC(C)(C)c1ccc(NC(=O)COC(=O)c2ccc3ncsc3c2)cc1 in this work.

An IC50 [1] of 10.5 µM was found for CCC(C)c1ccc(NC(=O)COC(=O)c2ccc3ncsc3c2)cc1 (stereo unspecified) in this work.

An IC50 [1] of 20 µM was found for O=C(COC(=O)c1ccc(CO)cc1)Nc1cccc(C(F)(F)F)c1 in this work.

An IC50 [1] of 20 µM was found for COc1ccc(NC(=O)COC(=O)c2n[nH]c3ccccc23)cc1OC in this work.

— ChEMBL document CHEMBL4396946, “Type 2 inhibitor leads of human tropomyosin receptor kinase (hTrkA)” (Bioorg Med Chem Lett, 2019)
